Measurements published in US8748395B2, “Cell-permeable peptide inhibitors of the JNK signal transduction pathway” (Xigen Inflammation Ltd., priority 2006, dated 2014).
Square brackets hold non-standard residues; d marks the D form. Peptide text beside a SMILES is read from it.

How the values were obtained:
[1] = tested on: recombinant JNK1, JNK2 and JNK3; assay: Solid phase kinase assay: JNK-mediated phosphorylation of c-Jun, ATF2 and Elk1; format: biochemical; settings: GST-Jun (aa 1-73), 0-250 μM dosage study; fold less efficient
Description: The effects of the peptides on JNKs-mediated phosphorylation of their target transcription factors were investigated in vitro. Recombinant and non activated JNK1, JNK2 and JNK3 were produced using a TRANSCRIPTION AND TRANSLATION rabbit reticulocyte lysate kit (PROMEGA®) and used in solid phase kinase assays with c-jun, ATF2 and Elk1, either alone or fused to glutathione-S-transferase (GST), as substrates. Dose response studies were performed wherein inventive L-TAT or L-TAT-IB1(s) peptides (0-25 μM) were mixed with the recombinant JNK1, JNK2, or JNK3 kinases in reaction buffer (20 mM Tris-acetate, 1 mM EGTA, 10 mM p-nitrophenyl-phosphate (pNPP), 5 mM sodium pyrophosphate, 10 mM p-glycerophosphate, 1 mM dithiothreitol) for 20 minutes. The kinase reactions were then initiated by the addition of 10 mM MgCl2 and 5 pCi^33P-γ-dATP and 1 μg of either GST-Jun (aa 1-89), GST-AFT2 (aa 1-96) or GST-ELK1 (aa 307-428). GST-fusion proteins were purchased from Stratagene (La Jolla, Calif.).
Ten μL of glutathione-agarose beads were also added to the mixture. Reaction products were then separated by SDS-PAGE on a denaturing 10% polyacrylamide gel. Gels were dried and subsequently exposed to X-ray films (Kodak).
The ability of D-TAT, inventive D-TAT-IB1(s) and inventive L-TAT-IB1 (s) peptides (0-250 μM dosage study) to inhibit GST-Jun (aa 1-73) phosphorylation by recombinant JNK1, JNK2, and JNK3 by were analyzed as described above. Overall, D-TAT-IB1(s) peptide decreased JNK-mediated phosphorylation of c-Jun, but at levels approximately 10-20 fold less efficiently than L-TAT-IB1(s).

WiDr cells = assay: Irradiation (30 Gy) induced apoptosis of WiDr cells; format: cell-based, human; settings: 1 μM added 30 minutes before 30 Gy, analyzed 48 hours later
Description: JNK is also activated by ionizing radiation. To determine whether inventive TAT-IB(s) peptides would provide protection against radiation-induced JNK damage, “WiDr” cells were irradiated (30 Gy) in presence or absence of D-TAT, inventive L-TAT-IB1(s) or inventive D-TAT-IB1(s) peptides (1 μM added 30 minutes before irradiation). Control cells (CTRL) were not irradiated. Cells were analyzed 48 hours later by means of PI and Hoechst 3342 staining, as described above. N=3, SEM are indicated.

12-days-old rats = assay: Neuroprotection against focal cerebral ischemia, permanent MCAO model; format: in vivo
Description: Focal cerebral ischemia was induced in 12-days-old rats. Pups were anesthetized in an induction chamber with 2% isoflurane and during the operation anaesthesia was maintained using a mask under 2% isoflurane. MCAO was induced by electrocoagulating a main branch of the middle cerebral artery (MCA). Rats were placed on the right side, and an oblique dermal incision was made between the ear and eye. After excision of the temporal muscle, the cranial bone was removed from the frontal suture to a level below the zygomatic arch. […] The cranial skin incision was then closed. Rat pups were then placed in an incubator maintained at 37° C. until they awoke, and were then transferred to their mother.
6 hours later an inventive chimeric D-TAT-IB1(s) peptide according to SEQ ID NO: 11 was injected intraperitoneally. 24 hours after the coagulation, the rats were anesthetized with chloral hydrate and perfused through the ascending aorta with 4% paraformaldehyde in PBS. Brains were then removed and kept for 2 hours in the same fixative solution, and placed in a gradient of 30% sucrose in PBS for about 15 hours at 4° C. Brains were frozen in isopentane (−40° C.) and stored at −20° C. Coronal cryostat sections of 50 μm were collected on glass slides. The sections were stained with cresyl violet. Each tenth section was analyzed and the total volume of the lesion was calculated using the Neuroleucida programme. In the control group A, the mean lesion volume was 21.47 mm^3. […] A significant statistic difference is observed between group A and groups C, E and F (one-tailed t-test, p=0.030, p=0.002, p=0.001 respectively).

βTC-3 cells = assay: Inhibition of IL-1β induced pancreatic β-cell death by TAT-IB peptides; format: cell-based; settings: one single addition of peptide 1 μM, IL-1β every two days, 15 days
Description: We investigated the effects of the inventive L-TAT-IB(s) peptides on the promotion of β-cell apoptosis elicited by IL-1. PTC-3 cell cultures were incubated for 30 minutes with 1 μM of inventive L-TAT-IB1(s) peptides followed by 10 ng/mL of IL-1. A second addition of peptide (1 μM) was performed 24 hours later. Apoptotic cells were counted after two days of incubation with IL-1β using propidium iodide (red stained cell are dead cells) and Hoechst 33342 (blue stained cell are cells with intact plasma membrane) nuclear staining.
Long term inhibition of IL-1 induced cells death was examined by treating βTC-3 cells as described above, except that incubation of the cells with the peptides and IL-1β was sustained for 12 days. Additional peptides (1 μM) were added each day and additional IL-1β (10 ng/mL) was added every 2 days. […] Taken together, these experiments provide evidence that inventive TAT-IB(s) peptides are biologically active molecules able to prevent the effects of JNK signaling on cell fate.
Inhibition of IL-1β induced pancreatic β-cell death by the inventive D-TAT-IB1(s) peptide was analyzed. βTC-3 cells were incubated as described above for 30 minutes with one single addition of the indicated peptides (1, μM), then IL-1 (10 ng/ml) was added.
Apoptotic cells were then counted after two days of incubation with IL-1β by use of Propidium Iodide and Hoechst 33342 nuclear staining. A minimum of 1,000 cells were counted for each experiment. Standard Error of the Means (SEM) are indicated, n=5.
Long term inhibition of IL-1P induced cell-death by the D-TAT-IB1 peptide was also analyzed. βTC-3 cells were incubated as above for 30 minutes with one single addition of the indicated peptides (1 μM), then IL-1β (10 ng/ml) was added, followed by addition of the cytokine every two days. Apoptotic cells were then counted after 15 days of incubation with IL-1 by use of propidium iodide and Hoechst 33342 nuclear staining. […] A minimum of 1.000 cells were counted for each experiment.

## CC(C)C[C@@H](NC(=O)[C@@H](Cc1ccccc1)NC(=O)[C@H]1CCCN1C(=O)[C@@H](CCC(N)=O)NC(=O)[C@H](NC(=O)[C@H]1CCCN1C(=O)[C@@H](CCCNC(=N)N)NC(=O)[C@@H](CO)NC(=O)[C@@H](CCC(N)=O)NC(=O)[C@H](N)CC(=O)O)C(C)C)C(=O)N[C@H](CC(N)=O)C(=O)N[C@H](CC(C)C)C(=O)N[C@@H](C(=O)N[C@@H](C(=O)N1CCC[C@@H]1C(=O)N[C@H](CCCNC(=N)N)C(=O)N[C@H](CCCCN)C(=O)N1CCC[C@@H]1C(=O)N[C@H](CCCNC(=N)N)C(=O)N1CCC[C@@H]1C(=O)N1CCC[C@@H]1C(=O)N[C@H](CCCNC(=N)N)C(=O)N[C@H](CCCNC(=N)N)C(=O)N[C@H](CCCNC(=N)N)C(=O)N[C@H](CCC(N)=O)C(=O)N[C@H](CCCNC(=N)N)C(=O)N[C@H](CCCNC(=N)N)C(=O)N[C@H](CCCCN)C(=O)N[C@H](CCCCN)C(=O)N[C@H](CCCNC(=N)N)C(=O)NCC(=O)O)[C@H](C)O)[C@H](C)O [D-TAT-IB1(s)] (H-[dD][dQ][dS][dR][dP][dV][dQ][dP][dF][dL][dN][dL][dT][dT][dP][dR][dK][dP][dR][dP][dP][dR][dR][dR][dQ][dR][dR][dK][dK][dR]G-OH)
[1]
  decrease of JNK-mediated phosphorylation of c-Jun, efficiency relative to L-TAT-IB1(s): 10-20 fold
WiDr cells
  prevention of irradiation induced apoptosis: able to prevent irradiation induced apoptosis
12-days-old rats; dose of 1 mg/kg, 0.003 mg/kg and 0.0003
  cerebral protection compared to saline group: total sample was not large enough to reach a significant difference
12-days-old rats; dose of 11 mg/kg, 3 mg/kg, 0.3 mg/kg and 0.03 mg/kg i.p.
  cerebral protection: contributes to a cerebral protection
12-days-old rats; i.p. 6 hours after MCAO
  dose at which the best protection is observed: 0.03 mg/kg
12-days-old rats; i.p. 6 hours after MCAO, analysis at 24 hours, all treated groups
  mean lesion volume versus control group: lower mean than the control group
βTC-3 cells
  long term (15 day) protection against IL-1β induced cell death: able to confer long term (15 day) protection
